Data from US20090118310A1, “Activated Cdc42-associated kinase (ACK) as a therapeutic target for Ras-induced cancer” (UNIVERSITY OF MEDICINE AND DENTISTRY OF NEW JERSEY, priority 2005, published 2009).
d = 2'-deoxy (DNA); r = 2'-OH (RNA)

Experiments:
[1] = target: T1, ACK-1 kinase (GST-ACKD, amino acids 101-441) (Homo sapiens, UniProt Q07912); assay: In vitro kinase assay of GST-ACKD with MBP as substrate; type: biochemical; conditions: FIG. 4C dose response, FIG. 4D inhibitors at 200 nmol/L
T1 construct: made in house; host or cells: Escherichia coli BL21 (pGEX-2TH vector)
Description: Escherichia coli BL21 cells transformed with pGEX-ACKD were grown at 30° C. to early logarithmic phase and protein expression was induced by adding 0.1 mmol/L isopropyl-L-thio-β-D-galactopyranoside. After 3 hours of incubation, cells were harvested, resuspended in lysis buffer [50 mmol/L Tris (pH 7.5), 0.73 mol/L sucrose, 5 mmol/L MgCl2, 0.5% (v/v) NP40], and disrupted by sonication. Cells were centrifuged at 10,000×g for 30 minutes at 4° C. The supernatant was applied to the glutathione-Sepharose column equilibrated with WED buffer [20 mmol/L Tris (pH 7.5), 2 mmol/L MgCl2, 1 mmol/L DTT] followed by washing with WED buffer. GST-ACKD was eluted with 5 mmol/L glutathione solution in 50 mmol/L Tris (pH 9.6). The eluate was dialyzed in WED buffer overnight and concentrated on a sucrose gradient. The expected size of the fusion protein (GST-ACKD) was confirmed by SDS-PAGE (data not shown), and the protein was used for kinase assays as described below.
The purified GST-ACKD (˜5 μg per reaction) was incubated in kinase reaction buffer [50 mmol/L HEPES-KOH (pH 7.2), 10 mmol/L magnesium acetate, 5 mmol/L DTT] containing 7.5 μg MBP, 100 μmol/L ATP, and 4 μCi [γ-^33P]ATP for 10 minutes at 30° C. Reactions were stopped by addition of 5× Laemmli SDS sample buffer. Proteins were separated by SDS-PAGE, and radioactivity incorporated into the substrate was quantified by using the Kodak Imaging Station 2000R. For kinase inhibition experiments, GST-ACKD was preincubated with individual inhibitors in kinase buffer or kinase buffer alone (control) before the addition of MBP following the same protocol as described above. Experiments were done in triplicate.
Several compounds were screened to examine their potency in inhibiting the kinase activity of ACK in vitro. […]
Different kinase inhibitors were added to the ACK-1 kinase reaction as described above in General Procedures. Phosphorylation of MBP was determined by SDS-PAGE and autoradiography. The level of MBP phosphorylation was determined by scanning MBP bands using Kodak Imaging Station 2000R and plotted as arbitrary units. […]

ACK-1 = ACK-1 protein level after siRNA transfection (Western blot); type: cell-based
Description: (§1) A pair of cRNA primers of 21 nucleotides (Dharmacon Research, Inc., Lafayette, Co.) corresponding to the 5′ noncoding of the ACK-1 cDNA (5′-CAUUACCCGCCUAUCUCAUdTdT-3′ and 5′-AUGAGAUAGGCGGGUAAUGdTdT-3′) were annealed to form siRNA (a 19-nucleotide duplex stem with two-nucleotide overhangs on either side) according to the instructions provided by the manufacturer. v-Ha-Ras-transformed or parental NIH 3T3 cells were seeded into 6- or 24-well plates and incubated overnight. The annealed double-stranded ACK siRNA (0.16, 0.4, or 0.8 nmol/L in DMEM) or the sense strand oligonucleotide of ACK siRNA (0.8 nmol/L) was complexed with Cellfectin. siRNA:Cellfectin complexes were added to the serum-free medium and incubated for 3 hours. Cells were then replenished with medium containing 10% FCS and incubated for another 21 hours or as indicated elsewhere. Cells were collected and counted using a hemocytometer; alternatively, cell lysates were prepared for Western blotting. Western blotting was done using ACK-1 antibodies. […]
After 24 hours of transfection, cells were collected and lysed with Laemmli SDS sample buffer. Proteins were separated by SDS-PAGE and the level of ACK-1 protein was determined by Western blotting using antibodies against ACK-1. […]

[2] = test system: v-Ha-Ras-transformed NIH 3T3 cells; assay: Growth of v-Ha-Ras-transformed cells after siRNA transfection (cell counting); type: cell-based; conditions: FIG. 2C; counted every 24 hours
Description: as §1
(§2) After transfection with siRNA at different concentrations (in nmol/L), v-Ha-Ras transformed and parental NIH 3T3 cells were trypsinized and collected every 24 hours. Cell numbers were counted in triplicate.

parental NIH 3T3 cells = assay: Growth of parental NIH 3T3 cells after siRNA transfection (cell counting); type: cell-based; conditions: FIG. 2D; counted every 24 hours
Description: as §1, §2

[3] = test system: v-Ha-Ras-transformed NIH 3T3 cells; assay: Induction of apoptosis in v-Ha-Ras-transformed cells (PARP and ICAD cleavage, cytochrome c release, DNA fragmentation); type: cell-based; conditions: PARP cleavage, ICAD cleavage, chromosomal DNA fragmentation, FIGS. 3A-D
Description: (§3) v-Ras-transformed cells (1×10^5) were seeded in a 35 mm dish and incubated under standard cell culture conditions overnight. Cells in DMEM were treated with Cellfectin, the sense strand of the siRNA:Cellfectin complex or the siRNA:Cellfectin complex for 3 hours. The medium was then replaced with DMEM containing 10% FCS and incubated for 21 hours at 37° C. Cells were harvested and used for Western blotting with specific antibodies or for cell cycle or caspase activation assays. For cell cycle and caspase activation assays, cells were resuspended in PBS containing FITC-VAD-fmk for 10 minutes at room temperature. The cells were then fixed with ice-cold 70% ethanol for 30 minutes at 4° C. Following a rinse with PBS, the cells were resuspended in PBS containing RNase (0.1 mg/mL) and then stained with propidium iodine (10 μg/mL) for 10 minutes at room temperature. Cellular fluorescence from a sample of 15,000 cells was analyzed using a Coulter EPICS Profile II Flow Cytometer (Coulter Electronics, Miami, Fla.). Fluorescence excited at 488 nm was detected using a 525±20 band pass filter. Histograms were analyzed using EPICS Workstation Software (version 4).
v-Ras-transformed cells (5×10^5) were seeded in 35 mm dishes and incubated overnight under standard cell culture conditions. […]

[4] = test system: v-Ha-Ras-transformed cells; assay: Cell cycle analysis of v-Ha-Ras-transformed cells by flow cytometry; type: cell-based; conditions: data not shown
Description: as §3

T1 sequence (Q07912 38-378 H250G): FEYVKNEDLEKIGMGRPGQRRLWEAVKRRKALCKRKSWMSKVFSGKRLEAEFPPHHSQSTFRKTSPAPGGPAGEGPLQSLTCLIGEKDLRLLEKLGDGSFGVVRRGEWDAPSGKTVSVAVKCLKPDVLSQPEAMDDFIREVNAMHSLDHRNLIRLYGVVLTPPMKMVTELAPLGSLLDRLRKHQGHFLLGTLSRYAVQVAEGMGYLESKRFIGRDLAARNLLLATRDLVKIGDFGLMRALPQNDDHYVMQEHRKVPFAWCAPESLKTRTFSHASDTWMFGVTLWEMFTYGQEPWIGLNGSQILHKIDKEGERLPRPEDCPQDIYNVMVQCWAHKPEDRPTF

Compound	inhibition of kinase activity of ACK (MBP phosphorylation) [1]	level of ACK-1 at 0.8 nmol/L siRNA (ACK-1; 0.8 nmol/L, v-Ha-Ras-transformed and parental NIH 3T3 cells)	expression of ACK-1 (ACK-1; siRNA 0.16, 0.4 or 0.8 nmol/L, 24 hours, FIGS. 2A and B)	growth of v-Ha-Ras-transformed cells after transfection [2]	growth of parental NIH 3T3 cells after transfection (parental NIH 3T3 cells)	induction of apoptosis (apoptosis markers) [3]	cell cycle arrest [4]
O=c1c(O)c(-c2ccc(O)c(O)c2)oc2cc(O)cc(O)c12 [quercetin]	very weak activity	–	–	–	–	–	–
ACK-1 siRNA: annealed 21-nt pair 5′-CAUUACCCGCCUAUCUCAUdTdT-3′ / 5′-AUGAGAUAGGCGGGUAAUGdTdT-3′ corresponding to the 5′ noncoding of ACK-1 cDNA (chain 1 CAUUACCCGCCUAUCUCAUTT; chain 2 AUGAGAUAGGCGGGUAAUGTT; sugars from the 5' end r19 d2, backbone not given here)	–	reduced the level of ACK-1 significantly	reduced the expression of ACK-1 in a dose-dependent manner	inhibited the growth of v-Ha-Ras-transformed cells in a dose dependent manner	did not affect the growth of parental NIH 3T3 cells	induced apoptosis	did not block v-Ha-Ras-transformed cells at any particular stage of the cell cycle
O=c1c(-c2ccc(O)cc2)coc2cc(O)cc(O)c12 [genistein]	very weak activity	–	–	–	–	–	–
